The values below come from US12110293B2, “Substituted triazolo quinoxaline derivatives” (GRÜNENTHAL GMBH, priority 2018, dated 2024).

The structures appear in SMILES notation. Bounds are passed on as bounds.

The target of the experiment is T1, glucocorticoid receptor (Homo sapiens, UniProt P04150).
T1 construct: expressed in transfected cells
T1 sequence (P04150 524-758 limits assumed): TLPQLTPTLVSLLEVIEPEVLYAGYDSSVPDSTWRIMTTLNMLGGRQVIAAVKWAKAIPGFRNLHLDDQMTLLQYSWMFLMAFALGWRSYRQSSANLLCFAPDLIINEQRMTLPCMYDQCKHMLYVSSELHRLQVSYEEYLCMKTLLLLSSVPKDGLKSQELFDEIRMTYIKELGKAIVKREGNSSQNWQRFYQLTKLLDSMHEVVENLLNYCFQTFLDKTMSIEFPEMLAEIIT
Kind of experiment: Agonistic mode of action on the glucocorticoid receptor (CHO-Gal4/GR luciferase reporter cell line). The format is cell-based. The following applies: range class observed in the agonistic assay or the antagonistic assay (CHO-Gal4/GR reporter cells); table does not say which mode applies per example. The text has this:
Potential selective glucocorticoid receptor modulators of this intervention can be tested for modulation of the activity of the glucocorticoid receptor using cell-based assays. These assays involve a Chinese hamster ovary (CHO) cell line which contains fragments of the glucocorticoid receptor as well as fusion proteins. The glucocorticoid receptor fragments used are capable of binding the ligand (e.g. beclomethasone) to identify molecules that compete for binding with glucocorticoid receptor ligands. In more detail, the glucocorticoid receptor ligand binding domain is 25 fused to the DNA binding domain (DBD) of the transcriptionfactor GAL4 (GAL4 DBD-GR) and is stably integrated into a CHO cell line containing a GAL4-UAS-Luciferase reporter construct. […] After cell lysis the luminescence that is produced by luciferase after addition of the substrate is detected and EC50 or IC50 values can be calculated. Engagement of molecules which induce gene expression via glucocortocoid receptor binding to the DNA leads to expression of the luciferase gene under the control of the fusion protein GAL4 DBD-GR and therefore to a dose-dependent increase of the luminescence signal. Binding of molecules which repress beclomethasone-induced gene expression of the luciferase gene under the control of the fusion protein GAL4 DBD-GR leads to a dose-dependent reduction of the luminescence signal.
Biological Assays Agonistic Mode of Action on the Glucocorticoid Receptor
The reporter cell line CHO-Gal4/GR consisted of a Chinese hamster ovary (CHO) cell line (Leibniz Institute DSMZ—German Collection of Microorganisms and Cell CuItures GmbH: ACC-110) containing a firefly luciferase gene under the control of the GR ligand binding domain fused to the DNA binding domain (DBD) of GAL4 (GAL4 DBD-GR) stably integrated into CHO cells. This cell line was established by stable transfection of CHO cells with a GAL4-UAS-Luciferase reporter construct. In a subsequent step the ligand binding domain of the GR cloned into pIRES2-EGFP-GAL4 containing the DNA binding domain of GAL4 from pFA-AT2 was transfected. This fusion construct activated firefly luciferase expression under the control of a multimerized GAL4 upstream activation sequence (UAS). The signal of the emitted luminescence was recorded by the FLIPR^TETRA. This allowed for specific detection of ligand-induced activation of the GR and therefore for the identification of compounds with agonistic properties. The GAL4/UAS reporter was premixed with a vector that constitutively expressed Renilla luciferase, which served as an internal positive control for transfection efficiency.
The complete culture medium for the assay was: • DMEM F-12 (1:1) MIXTURE (LONZA cat. N°: BE04-687F/U1) 500 mL • 5 mL of 100 mM Sodium Pyruvate (LONZA cat. N°: BE12-115E) • 25 mL of 7.5% Sodium Bicarbonate (LONZA cat. N° BE17-613E) • 6.5 mL of 1 M Hepes (LONZA cat. N°: BE17-737E) • 5 mL of 100× Penicillin/Streptomycin (LONZA cat. N° DE17-602E) • 50 mL of Fetal Bovine Serum (Euroclone cat. N° ECS 0180L) • 0.25 mL of 10 mg/mL Puromycin (InvivoGen cat.: ant-pr-1) • 0.5 mL of 100 mg/mL Zeocin (InvivoGen cat.: ant-zn-1)
Cryo-preserved CHO-Gal4/GR cells were suspended in complete medium and 5000 cells/25 μl/well were seeded into the wells of 384-well polystyrene assay plates (Thermo Scientific, cat. #4332) and cultured at 37° C., 5% CO2 and 95% humidity. After 24 hours growth medium was carefully removed and replaced by 30 μl Opti-MEM (GIBCO, cat. #31985062) as assay buffer. To test the compounds an 8-point half-log compound dilution curve was generated in 100% DMSO starting from a 2 mM stock and compounds were then diluted 1:50 in Opti-MEM. 10 μl of compounds were then added to the wells containing 30 μl Opti-MEM resulting in a final assay concentration range from 10 μM to 0.003 μM in 0.5% DMSO. Compounds were tested at 8 concentrations in quadruplicate data points.
(A reporter such as luciferase makes a cellular process visible.)
With `Cc1c(-c2cccc3cc[nH]c23)c(F)cc2c1-n1c(C)nnc1C(C)(C)N2` [Example 25, 7-fluoro-8-(1H-indol-7-yl)-1,4,4,9-tetramethyl-4,5-dihydro-[1,2,4]triazolo[4,3-a]quinoxaline], the IC50 or EC50 (agonist or antagonist mode not specified) is 100 to 1000 nM.
For `Cc1c(-c2cccc3c2ccn3C2CC2)c(F)cc2c1-n1c(C)nnc1C(C)(C)N2` [Example 27, 8-(1-cyclopropyl-1H-indol-4-yl)-7-fluoro-1,4,4,9-tetramethyl-4,5-dihydro-[1,2,4]triazolo[4,3-a]quinoxaline], the IC50 or EC50 (agonist or antagonist mode not specified) was < 100 nM.
The same measure for `CC#Cc1c[nH]c2c(-c3c(F)cc4c(c3C)-n3c(C)nnc3C(C)(C)N4)cccc12` [Example 28, 7-fluoro-1,4,4,9-tetramethyl-8-(3-(prop-1-yn-1-yl)-1H-indol-7-yl)-4,5-dihydro-[1,2,4]triazolo[4,3-a]quinoxaline]: < 100 nM.
As to `Cc1c[nH]c2c(-c3c(F)cc4c(c3C(F)(F)F)-n3c(C)nnc3C(C)(C)N4)cccc12` [Example 29, 7-fluoro-1,4,4-trimethyl-8-(3-methyl-1H-indol-7-yl)-9-(trifluoromethyl)-4,5-dihydro-[1,2,4]triazolo[4,3-a]quinoxaline], the IC50 or EC50 (agonist or antagonist mode not specified) was < 100 nM.
For `Cc1c[nH]c2c(-c3c(F)cc4c(c3Cl)-n3c(C)nnc3C(C)(C)N4)cc(F)cc12` [Example 30], the IC50 or EC50 (agonist or antagonist mode not specified) is < 100 nM.
Regarding `Cc1c(-c2cc(F)cc3c(C)c[nH]c23)c(F)cc2c1-n1c(C)nnc1C(C)(C)N2` [Example 31, 7-fluoro-8-(5-fluoro-3-methyl-1H-indol-7-yl)-1,4,4,9-tetramethyl-4,5-dihydro-[1,2,4]triazolo[4,3-a]quinoxaline], the IC50 or EC50 (agonist or antagonist mode not specified) was < 100 nM.
The value for `Cc1c(-c2cc(F)cc3c(C4CC4)c[nH]c23)c(F)cc2c1-n1c(C)nnc1C(C)(C)N2` [Example 33, 8-(3-cyclopropyl-5-fluoro-1H-indol-7-yl)-7-fluoro-1,4,4,9-tetramethyl-4,5-dihydro-[1,2,4]triazolo[4,3-a]quinoxaline] was < 100 nM.
`CCc1nnc2n1-c1c(cc(F)c(-c3cc(F)cc4c3ccn4CC3CC3)c1C)NC2(C)C` [Example 35, 8-(1-(cyclopropylmethyl)-6-fluoro-1H-indol-4-yl)-1-ethyl-7-fluoro-4,4,9-trimethyl-4,5-dihydro-[1,2,4]triazolo[4,3-a]quinoxaline] came in with an IC50 or EC50 (agonist or antagonist mode not specified) of 100 to 1000 nM.
`CCc1nnc2n1-c1c(cc(F)c(-c3cc(F)cc4c3ccn4CCOC)c1C)NC2(C)C` [Example 36, 1-ethyl-7-fluoro-8-(6-fluoro-1-(2-methoxyethyl)-1H-indol-4-yl)-4,4,9-trimethyl-4,5-dihydro-[1,2,4]triazolo[4,3-a]quinoxaline] gave an IC50 or EC50 (agonist or antagonist mode not specified) of 100 to 1000 nM.
As for `Cc1nnc2n1-c1c(cc(F)c(-c3cc(F)cc4c3ccn4S(C)(=O)=O)c1C(F)(F)F)NC2(C)C` [Example 37, 7-fluoro-8-(6-fluoro-1-(methylsulfonyl)-1H-indol-4-yl)-1,4,4-trimethyl-9-(trifluoromethyl)-4,5-dihydro-[1,2,4]triazolo[4,3-a]quinoxaline], the IC50 or EC50 (agonist or antagonist mode not specified) is < 100 nM.
Turning to `Cc1c(-c2cccc3c(C#CC(C)(C)O)c[nH]c23)c(F)cc2c1-n1c(C)nnc1C(C)(C)N2` [Example 39], the IC50 or EC50 (agonist or antagonist mode not specified) was in the range of 100 to 1000 nM.
With `Cc1c(-c2cccc3c(C#CC(C)(C)N)c[nH]c23)c(F)cc2c1-n1c(C)nnc1C(C)(C)N2` [Example 40], the IC50 or EC50 (agonist or antagonist mode not specified) was < 100 nM.
As for `Cc1nnc2n1-c1c(cc(F)c(-c3cccc4c(C5CCC5)c[nH]c34)c1Cl)NC2(C)C` [Example 41, 9-chloro-8-(3-cyclobutyl-1H-indol-7-yl)-7-fluoro-1,4,4-trimethyl-4,5-dihydro-[1,2,4]triazolo[4,3-a]quinoxaline], the IC50 or EC50 (agonist or antagonist mode not specified) is < 100 nM.
As for `Cc1c(-c2cccc3c(C4CCOC4)c[nH]c23)c(F)cc2c1-n1c(C)nnc1C(C)(C)N2` (stereo not shown) [Example 42, 7-fluoro-1,4,4,9-tetramethyl-8-(3-(tetrahydrofuran-3-yl)-1H-indol-7-yl)-4,5-dihydro-[1,2,4]triazolo[4,3-a]quinoxaline], the IC50 or EC50 (agonist or antagonist mode not specified) was < 100 nM.
On to `CCc1c[nH]c2c(-c3c(F)cc4c(c3F)-n3c(C)nnc3C(C)(C)N4)cc(F)cc12` [Example 43, 8-(3-ethyl-5-fluoro-1H-indol-7-yl)-7,9-difluoro-1,4,4-trimethyl-4,5-dihydro-[1,2,4]triazolo[4,3-a]quinoxaline], for which the IC50 or EC50 (agonist or antagonist mode not specified) is < 100 nM.
With `CCc1c(-c2cc(F)cc3c2ccn3CCO)c(F)cc2c1-n1c(C)nnc1C(C)(C)N2` [Example 44, 2-(4-(9-ethyl-7-fluoro-1,4,4-trimethyl-4,5-dihydro-[1,2,4]triazolo[4,3-a]quinoxalin-8-yl)-6-fluoro-1H-indol-1-yl)ethanol], the IC50 or EC50 (agonist or antagonist mode not specified) was in the range of 100 to 1000 nM.
The value for `CCc1c(-c2cc(F)cc3c2cnn3CCO)c(F)cc2c1-n1c(C)nnc1C(C)(C)N2` [Example 45, 2-[4-(9-Ethyl-7-fluoro-1,4,4-trimethyl-5H-[1,2,4]triazolo[4,3-a]quinoxalin-8-yl)-6-fluoro-1H-indazol-1-yl]-ethanol] was 100 to 1000 nM; that for `CCc1c(-c2cc(F)cc3c2ccn3S(C)(=O)=O)c(F)cc2c1-n1c(C)nnc1C(C)(C)N2` [Example 46, 9-Ethyl-7-fluoro-8-(6-fluoro-1-methylsulfonyl-1H-indol-4-yl)-1,4,4-trimethyl-5H-[1,2,4]triazolo[4,3-a]quinoxaline] was < 100 nM; that for `CCc1c(-c2cc(F)cc3c(C)c[nH]c23)c(F)cc2c1-n1c(C)nnc1C(C)(C)N2` [Example 47, 9-Ethyl-7-fluoro-8-(5-fluoro-3-methyl-1H-indol-7-yl)-1,4,4-trimethyl-5H-[1,2,4]triazolo[4,3-a]quinoxaline] was < 100 nM.
Compound `CCc1c(-c2cccc3c2cnn3S(C)(=O)=O)c(F)cc2c1-n1c(C)nnc1C(C)(C)N2` [Example 51, 9-Ethyl-7-fluoro-1,4,4-trimethyl-8-(1-methylsulfonyl-1H-indazol-4-yl)-5H-[1,2,4]triazolo[4,3-a]quinoxaline] had an IC50 or EC50 (agonist or antagonist mode not specified) of 100 to 1000 nM.
The value for `CCc1c(-c2cc(F)cc3c2cnn3S(C)(=O)=O)c(F)cc2c1-n1c(C)nnc1C(C)(C)N2` [Example 52, 9-Ethyl-7-fluoro-8-(6-fluoro-1-methylsulfonyl-1H-indazol-4-yl)-1,4,4-trimethyl-5H-[1,2,4]triazolo[4,3-a]quinoxaline] was < 100 nM.
`Cc1c[nH]c2c(-c3c(F)cc4c(c3F)-n3c(Cc5ccccc5)nnc3C(C)(C)N4)cc(F)cc12` [Example 67, 1-Benzyl-7,9-difluoro-8-(5-fluoro-3-methyl-1H-indol-7-yl)-4,4-dimethyl-5H-[1,2,4]triazolo[4,3-a]quinoxaline] had an IC50 or EC50 (agonist or antagonist mode not specified) of 1000 to 15000 nM.
